Data from patent US20140357563A1, “Compositions and Methods for the Generation of Activated Protein C and Methods of Use Thereof” (The Children's Hospital of Philadelphia, priority 2011, published 2014).
Entries after “also recorded” stand apart in the source; their conditions may differ.

Columns and labels:
mice = assay: Histone-induced lethality in mice; format: in vivo, mouse; details: heparinoid 50 mg/kg, histones 75 mg/kg, WT mice
[1] = test system: thrombin (IIa)/thrombomodulin (TM) complex, TM+CS; assay: In vitro aPC generation assay in solution, IIa/TM complex with TM containing chondroitin sulfate side chains (TM+CS, TMCS); format: biochemical, rabbit or human; details: for effect of heparinoid on aPC generation with high doses of PF4 and histones: conditions simulating late sepsis; for effect of heparinoid on aPC generation at low levels of histones: histones 0-10 μg/ml, heparinoid 2, 5 or 10 μg/ml; for effect of heparinoid on aPC generation at low levels of histones / effect of heparinoid on aPC generation at higher levels of histones: FIG. 7; for effect of heparinoid on aPC generation at higher levels of histones: histones >10 μg/ml; for increase of aPC generation by PF4 in absence of histones: TMCS 0.5 nM, FIG. 6A
Method: (§1) Generation of aPC was assayed in 96-well plates as described previously (Slungaard et al. (1994) J. Biol. Chem., 269:25549-25556; Slungaard et al. (1993) J. Clin. Invest., 91:1721-1730). Briefly, thrombomodulin (TM) was mixed with various amounts of PF4 and/or heparin for 10 minutes in assay buffer (final concentration, 20 mM Tris, 100 mM NaCl, 1 mM CaCl2, 0.1% BSA, pH 7.5). Protein C (PC) was added for an additional 10 minutes followed by addition of thrombin (IIa) at a final concentration of either 0.2 or 2 nM and 15 minutes of incubation. All incubations were done at 37° C. Final concentrations of TM and PC were 0.5 nM and 500 nM, respectively.
Generation of aPC was assayed in 96-well plates generally as described above. Briefly, rabbit or human sTMCS or sTM−CS, was mixed with various amounts of histones, PF4 and/or heparinoid for 10 minutes in assay buffer (final concentration, 20 mM Tris, 100 mM NaCl, 1 mM CaCl2, 0.1% BSA, pH 7.5). Final concentrations of TMs were 0.5-40 nM. PC (final concentration, 500 nM) was added for an additional 10 minutes followed by addition of IIa at a final concentration of 0.2 or 2 nM and then incubated for 15 minutes. All incubations were done at 37° C. The reaction was quenched with 1 mM EDTA and 100 nM hirudin. Concentrations of aPC formed in the quenched samples were inferred from initial rate measurements after the addition of 0.5 mM S2366. Initial rates of chromogenic substrate cleavage were determined by measuring absorbance at 405 nm using a ThermoMax™ Microtiter Vmax® plate reader (Molecular Devices; Sunnyvale, Calif.).

plasma aPC = assay: In vivo aPC generation measured in mouse plasma; details: for effect of heparinoid on aPC generation after histones: histones 50 mg/kg
Method: Generation of aPC in vivo was assayed in plasma of mice as described (Kowalska et al. (2007) Blood 110:1903-1905). Mice were injected into the jugular vein. After 10 minutes, blood was drawn into sodium citrate/benzamidine (final concentration, 5 mM/50 mM, respectively), centrifuged for 10 minutes at 4500 g at 4° C., and plasma was frozen. Plasma aPC levels were subsequently measured by capture ELISA using antimouse aPC antibody and chromogenic substrate Spectrozyme® PCa (American Diagnostica) (Li et al. (2005) J. Thromb. Haemost., 3:1351-1359).
In vivo aPC generation was assayed in plasma of mice generally as described above. […] After 10 minutes, blood was drawn into sodium citrate/benzamidine (final concentration 5 mM/50 mM, respectively), centrifuged for 10 minutes at 5,000 rpm at 4° C. and plasma frozen. […] Some animals were pre-injected with UFH or ODSH 10 minutes before injection of histones. Plasma aPC levels were measured by capture ELISA (Li et al. (2005) J. Thromb. Haemost., 3:1351-1359) using an anti-mouse aPC antibody and chromogenic substrate Spectrozyme® PCa (American Diagnostica; Stamford, Conn.).

[2] = aPTT in mouse plasma after injection of heparinoids with or without histones; format: in vivo; details: for severe prolongation of aPTT in presence of high (sub-lethal and lethal) concentrations of histones: heparinoid 50 mg/kg 10 minutes before histones, WT mice, FIG. 9B
Method: Blood was collected from cut tails 20 minutes after injection of heparinoids and aPTT measured in plasma. FIG. 9A: WT mice were injected with control buffer (at 0 mg/kg heparanoid concentrations) or UFH (dark squares) or ODSH (open triangles) at the concentrations indicated. FIG. 9B: WT mice were injected with control buffer (open circles) or 50 mg/kg of either UFH (black square) or ODSH (gray triangles) 10 minutes before injection of increasing concentrations of histones. N=5 mice per data point. Mean±1 SD are shown.

antithrombin = details: Fryer et al. (1997); cited from earlier work
[3] = test system: thrombin (IIa)/thrombomodulin (TM) complex; assay: In vitro aPC assay in solution, on human TM expressing HEK293 and on primary endothelial cells; format: cell-based
Method: as §1
To measure aPC formation, HEK-K293 cells stably expressing human TM on their surface cells were allowed to adhere overnight onto 24-well plates (5×10^5 cells/well) in DMEM/F12 media containing 10% FBS (Feistritzer et al. (2006) J. Biol. Chem., 281:20077-20084). Cells were washed twice with DMEM/F12 media followed by Dulbecco PBS. Various concentrations of PF4 or protamine sulfate (PRT) were incubated with cells for 10 minutes at 37° C. followed by the addition of PC and IIa, as described above. After incubation for 45 minutes, aliquots of the reaction mixture were transferred to 96-well plates and quenched by the addition of 1 mM EDTA and 100 nM hirudin. Generation of aPC was measured after the addition of 0.5 mM […] and determination of the initial rate of chromogenic substrate cleavage from absorbance measurements at 405 nm on a Thermomax™ Microtiter Vmax® plate reader (Molecular Devices).

[4] = WT mice, heparinoid 50 mg/kg, FIG. 8

For 2-O, 3-O desulfated heparin [ODSH], the “effect of heparinoid on histone lethality” value (mice) was “prevent these deaths”, the “effect of heparinoid on aPC generation with high doses of PF4 and histones” value [1] was “enhanced aPC generation” and the “effect of heparinoid on aPC generation at low levels of histones” value [1] was “inhibited aPC generation”. The “effect of heparinoid on aPC generation at higher levels of histones” value [1] was “restored high levels of aPC generation”, the “effect of heparinoid on aPC generation after histones” value (plasma aPC; [4]) was “suppressed detectable aPC generation” and the “aPC levels in mice pretreated with heparinoid” value (plasma aPC; heparinoid 50 mg/kg, histones 75 mg/kg, WT mice, FIG. 8) was “aPC levels were raised”. The “severe prolongation of aPTT in presence of high (sub-lethal and lethal) concentrations of histones” value [2] was “reversed”, the “dose required to markedly prolong the aPTT” value ([2]; non-histone treated mice, FIG. 9A) was “the same as needed to reverse histone lethality” and the “antithrombin activity, fold less” value (antithrombin) was roughly 60 fold.

With heparin the “effect of heparinoid on histone lethality” value (mice) was “prevent these deaths”, the “effect of heparin in absence of the GLA-domain of Protein C” value ([1]; Gla-domainless Protein C, TM+CS, FIG. 3E) was “did not have any effect” and the “effect of heparin on histones/PF4 mediated aPC generation” value ([1]; TM+CS, PF4 50 μg/ml, histones 75 μg/ml, FIGS. 3B and 3C) was “first enhances aPC generation before a decrease in aPC generation”. For the same substance, the “effect of UFH on peak aPC generation from histone plus PF4” value ([1]; UFH 5 μg/ml, PF4 50 μg/ml, FIG. 6C) was “shifted to the right”, the “effect of heparinoid on aPC generation with high doses of PF4 and histones” value [1] was “enhanced aPC generation” and the “effect of heparinoid on aPC generation at low levels of histones” value [1] was “inhibited aPC generation”. The “effect of heparin on aPC generation at below peak concentration of histones” value ([1]; histones 3 μg/ml, TM+CS, FIG. 2F) was “only decreased aPC generation”, the “effect of heparinoid on aPC generation at higher levels of histones” value [1] was “restored high levels of aPC generation” and the “heparin concentration of optimal effect on aPC generation” value ([1]; histones present in excess (75 μg/ml), TM+CS, FIGS. 2E and 2F) was 5 μg per ml. For the same substance, the “effect of heparinoid on aPC generation after histones” value (plasma aPC; [4]) was “suppressed detectable aPC generation”, the “effect of heparin on aPC generation at low concentrations of PF4” value ([3]; PF4 12.5 μg/ml, FIG. 1B) was “decreases aPC generation” and the “effect of heparin on aPC generation at an excess of PF4” value ([3]; PF4 400 μg/ml, FIG. 1B) was “shifts the curve back to the optimal PF4 concentration”. The “effect of heparin on aPC generation at lower than optimal protamine sulfate concentration” value ([3]; PRT 1 μg/ml, FIG. 1D) was “only decreases aPC generation”, the “effect of heparin on aPC generation at higher concentrations of PRT” value ([3]; PRT 20 μg/ml, FIG. 1D) was “a peak and then a decrease in aPC” and the “effect of added heparin on histone curve for aPC generation” value ([3]; absence or presence of PF4) was “shifted the curve for aPC generation to the right”. The “effect on aPTT in mice not exposed to histones” value ([2]; concentrations 10 and 100-times lower than needed to reverse histone lethality, FIG. 9A) was “marked prolongation of aPTT” and the “severe prolongation of aPTT in presence of high (sub-lethal and lethal) concentrations of histones” value [2] was “not by the UFH”.

With platelet factor 4 [PF4] the “potency on aPC activity compared with histones” value ([1]; FIGS. 2C and 2D) was “more potent than histones”, the “increase of aPC generation by PF4 in absence of histones” value ([1]; PF4 3 μg/ml) was greater than 3 fold and the “increase of aPC generation by PF4 in absence of histones” value ([1]; PF4 25 μg/ml) was “around 7 fold”. The “effect of concurrently injected PF4 on plasma aPC” value (plasma aPC; PF4 knockout mice, PF4 5 mg/kg with IIa and histones, FIG. 4, 5 mg/kg) was “further increases the generation of aPC in plasma; also recorded: higher aPC levels”, the “PF4 concentration at peak of bell-shape curve of aPC generation” value ([3]; FIG. 1A) was “around 50 μg/ml” and the “maximal increase of aPC generation” value ([3]; at peak of biphasic curve) was roughly 6 times. The “PF4 concentration at peak of biphasic curve of aPC generation” value ([3]; in solution, human TM expressing HEK293, primary endothelial cells) was “around 25 μg/ml”.

In the case of protamine sulfate [PRT], the “shape of aPC generation versus protamine sulfate concentration” value ([3]; FIG. 1C) was “bell-shape curve”.
